Results as given in patent US10758584B2, “Topical formulation for promoting wound healing” (Oneness Biotech Co. LTD, priority 2016, dated 2020).

Assay: clinical
Settings: human, in vivo
Description: […]. The PA and CA extracts in the topical formulation were prepared according to the methods described herein. The topical formulation is cream-based and further comprises cetostearyl alcohol (about 1.0-10% by weight, for example, about 3.5-6.5% by weight), white petrolatum and liquid petrolatum 350 cps (about 5%-30% by weight in total, for example, about 5-15% by weight in total), methyl paraben and propyl paraben (about 0.005% to 0.2% by weight in total, for example, 0.005-0.2% by weight in total), emulsifiers such as Span® 60 and Tween® 60 (about 0.5-10% by weight in total, for example, about 0.5-5% by weight in total), and one or more solvent such as propylene glycol (about 2-20% by weight, for example, about 4-10% by weight). The extracts were formulated in a cream-based topical formulation that additionally contains liquid petrolatum, propylene glycol, cetyl stearyl alcohol, white petrolatum, Span® 60, Tween® 60, propyl paraben, methyl paraben, and water.
A total of 12 patients completed the study. Each subject received one dose of the cream formulation on Day 1 followed by the blood sampling collection, then twice per day from Day 2 to Day 13, and a further blood sampling collection was scheduled on Day 14 after the final dose. […].

concentration at 1 day: ≤ 0.0124 ng/mL | concentration at 14 day: ≤ 0.017 ng/mL | number of patients with detectable plasma concentrations (1 day): 2 | number of patients with detectable plasma concentrations (14 day): 4
Compound: COc1ccc(-c2cc(=O)c3c(O)c(OC)c(OC)cc3o2)cc1 [salvigenin]
